# According to patent US8377963B2, “Insulin-regulated aminopeptidase (IRAP) inhibitors and uses thereof” (Howard Florey Institute, priority 2007, dated 2013):
# Tested on: hippocampal slices
# Assay: Hippocampal glucose uptake assay
# Assay type: cell-based
# Details: rat hippocampal slices
# Description: Hippocampal glucose uptake assay. Eight week old male Spraque-Dawley rats were deeply anaesthetised with Isofluorothane and killed by decapitation. The brains were rapidly removed and placed into ice-cold, 95% O2, 5% CO2-bubbled artificial cerebrospinal fluid (aCSF: 124 mM NaCl, 2.5 mM KCl, 2 mM CaCl2, 2 mM MgSO4, 26 mM NaHCO3, 1.25 mM NaH2 PO4 pH 7.4) supplemented with 10 mM D-glucose (Sigma). Under aCSF, the hippocampal hemispheres were rapidly dissected out and 200 μm slices prepared on McIllwain tissue chopper with an ice-cold blade and stage. Slices from each hemisphere were kept together and transferred to freshly 95% O2, 5% CO2-bubbled aCSF supplemented with 10 mM D-glucose at 37° C. for 1 hour. All subsequent steps were carried out at 37° C. in a gently shaking chamber with continuous infusion of 95% O2, 5% CO2. Slices from one hemisphere were used as a basal control while slices from the other hemisphere were stimulated, providing an internal control for each animal. […] Tritium content was measured in a Liquid Scintillation Analyser 1900TR (Perkin Elmer, MA, USA).
smiles,measurement,setting,value
"CCOC(=O)C1=C(NC(C)=O)Oc2cc(O)ccc2C1c1cccnc1 (centres unmarked) [Compound 2, Ethyl 2-(acetylamino)-7-hydroxy-4-pyridin-3-yl-4H-chromene-3-carboxylate]",Fold change in 3H-2DOG uptake,"dbcAMP & compound versus dbcAMP alone (=1), 100 nM",1.7
same,dibutyryl cAMP-evoked glucose uptake,,increase in dibutyryl cAMP-evoked glucose uptake
